{
  "source": "paper PMC9921896",
  "about": "(Molecules, 2023)",
  "test": "Metabolite identification (MetID) in hepatocytes by LC-MS/MS",
  "format": "in vitro ADME, human",
  "conditions": "80 min incubation, HR LC-MS/MS, metabolite M1, parent ion m/z 551 (375 + 176)",
  "excerpt": "However, on the contrary, these metabolites can also be formed with higher or equivalent toxicity when compared to the parent ligand. Therefore, to gain such an understanding of metabolite toxicity, 223-2 TbB ligand was shortlisted for metabolite identification (MetID) studies as it was the least prominent CYP inhibitor among the three TbB ligands studied for CYP inhibition, as discussed in earlier sections. The metabolites’ detection and identification were accomplished by utilizing the high-resolution LC-MS/MS (HR LC-MS/MS) technique and the obtained fragmentation pattern was subsequently analyzed to propose putative structures as discussed in the following paragraph. MetID studies was initiated first for the parent 223-2 ligand by HR LC-MS/MS as its fragmentation understanding could act as a guide to potentially identify the metabolites formed after incubation with hepatocytes. Since the 223-2 TbB ligand contain N and O atoms, it could be easily protonated and it was sensitive in positive ionization mode. Consequently, it was studied using the positive fragmentation pattern by ESI-MS ^n .\nTo understand the fragmentation pattern of the parent compound, EPI spectrum was analyzed. […] Next, TbB ligand 223-2 was incubated (80 min) with hepatocytes and a new metabolite (M1) could be detected when compared with the control (0 min). […]",
  "data": [
    {"smiles": "COc1cc(-c2nnn(-c3cc(OC)c(O)c(OC)c3)n2)cc(OC)c1O", "note": "[223-2]", "values": [
      {"measurement": "metabolite detected after incubation with hepatocytes", "result": "formation of glucuronide"}
    ]}
  ]
}
